Target: T1, Nav1.7 (or SCN9A) channel; HEK cells stably transfected with hSCN9A (Homo sapiens, UniProt Q15858)
T1 construct: expressed in transfected cells
Assay: Nav1.7 block, PatchXpress 7000 automated whole-cell voltage clamp, estimated IC50 (EIC50)
Assay type: cell-based
Conditions: PatchXpress platform; hSCN9A HEK cells held at V1/2 of inactivation; estimated IC50

T1 sequence (Q15858 whole entry): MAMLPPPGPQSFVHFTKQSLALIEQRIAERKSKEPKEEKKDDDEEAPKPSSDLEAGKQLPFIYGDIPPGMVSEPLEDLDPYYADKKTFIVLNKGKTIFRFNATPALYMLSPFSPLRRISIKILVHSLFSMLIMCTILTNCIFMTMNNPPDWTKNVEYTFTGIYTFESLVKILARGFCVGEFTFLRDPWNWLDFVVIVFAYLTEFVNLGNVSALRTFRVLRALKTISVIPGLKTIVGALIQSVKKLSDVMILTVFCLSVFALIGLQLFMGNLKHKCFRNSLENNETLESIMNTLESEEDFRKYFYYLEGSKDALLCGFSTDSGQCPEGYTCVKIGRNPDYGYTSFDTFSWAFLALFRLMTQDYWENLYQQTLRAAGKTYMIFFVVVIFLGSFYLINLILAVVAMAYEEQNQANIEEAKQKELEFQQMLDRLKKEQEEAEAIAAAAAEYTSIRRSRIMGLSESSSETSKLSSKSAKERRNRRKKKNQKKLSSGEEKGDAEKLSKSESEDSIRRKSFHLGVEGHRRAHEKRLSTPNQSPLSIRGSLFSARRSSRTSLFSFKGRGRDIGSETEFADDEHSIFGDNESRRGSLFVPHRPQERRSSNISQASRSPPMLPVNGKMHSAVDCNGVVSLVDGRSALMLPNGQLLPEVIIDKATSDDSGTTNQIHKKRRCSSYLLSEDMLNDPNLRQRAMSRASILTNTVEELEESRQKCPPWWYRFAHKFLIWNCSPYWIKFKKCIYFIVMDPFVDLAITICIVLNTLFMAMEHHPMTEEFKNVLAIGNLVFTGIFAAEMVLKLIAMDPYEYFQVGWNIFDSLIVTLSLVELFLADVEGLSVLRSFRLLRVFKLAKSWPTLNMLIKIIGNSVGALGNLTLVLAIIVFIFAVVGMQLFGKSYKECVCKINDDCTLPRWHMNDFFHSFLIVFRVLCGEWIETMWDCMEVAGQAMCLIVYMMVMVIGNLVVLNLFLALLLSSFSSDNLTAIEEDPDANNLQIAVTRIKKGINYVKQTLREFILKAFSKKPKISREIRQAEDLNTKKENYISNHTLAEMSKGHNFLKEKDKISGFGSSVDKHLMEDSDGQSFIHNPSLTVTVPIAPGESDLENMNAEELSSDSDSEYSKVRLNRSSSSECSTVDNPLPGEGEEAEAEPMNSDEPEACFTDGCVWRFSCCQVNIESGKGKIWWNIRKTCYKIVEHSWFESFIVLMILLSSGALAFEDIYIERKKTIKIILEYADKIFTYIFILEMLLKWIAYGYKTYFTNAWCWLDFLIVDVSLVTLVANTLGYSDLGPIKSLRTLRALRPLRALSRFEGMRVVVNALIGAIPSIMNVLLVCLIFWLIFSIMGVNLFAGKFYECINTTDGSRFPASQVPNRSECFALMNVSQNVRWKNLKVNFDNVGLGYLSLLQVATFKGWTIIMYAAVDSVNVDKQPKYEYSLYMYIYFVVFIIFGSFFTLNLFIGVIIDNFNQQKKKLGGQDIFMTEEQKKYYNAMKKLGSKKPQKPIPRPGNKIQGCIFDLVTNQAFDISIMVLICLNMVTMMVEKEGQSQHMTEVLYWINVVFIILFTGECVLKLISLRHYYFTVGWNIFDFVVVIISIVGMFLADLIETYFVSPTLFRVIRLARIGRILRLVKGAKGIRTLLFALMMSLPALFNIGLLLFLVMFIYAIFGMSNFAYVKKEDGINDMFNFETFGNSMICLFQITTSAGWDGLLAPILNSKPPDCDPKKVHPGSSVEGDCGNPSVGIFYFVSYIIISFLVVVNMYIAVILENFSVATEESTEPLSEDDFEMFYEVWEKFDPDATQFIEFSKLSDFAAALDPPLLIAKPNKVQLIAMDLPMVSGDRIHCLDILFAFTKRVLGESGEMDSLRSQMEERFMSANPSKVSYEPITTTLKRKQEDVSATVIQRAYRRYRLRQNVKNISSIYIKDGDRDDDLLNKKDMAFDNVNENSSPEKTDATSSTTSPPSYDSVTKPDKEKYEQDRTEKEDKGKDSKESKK

| IC50 | Structure (SMILES) |
| --- | --- |
| >10000 nM | N#Cc1cc(S(=O)(=O)Nc2ncns2)ccc1Oc1cnc(N)nc1-c1ccc(Cl)cc1 [Example 18, 4-{[2-amino-4-(4-chlorophenyl)pyrimidin-5-yl]oxy}-3-cyano-N-1,2,4-thiadiazol-5-ylbenzenesulfonamide] |
| 3860 nM | O=S(=O)(Nc1nccs1)c1ccc(Oc2cc(Cc3ccc(Cl)cc3)n[nH]2)c(F)c1 [Example 243, 4-(3-(4-chlorobenzyl)-1H-pyrazol-5-yloxy)-3-fluoro-N-(thiazol-2-yl)benzenesulfonamide] |
| 15100 nM | O=S(=O)(Nc1nccs1)c1ccc(Oc2ccc(Oc3ccc(F)cc3)cc2)c(F)c1 [Example 124, 3-fluoro-4-[4-(4-fluorophenoxy)phenoxy]-N-1,3-thiazol-2-ylbenzenesulfonamide] |
| 360 nM | N#Cc1cc(S(=O)(=O)Nc2ncns2)ccc1Oc1ccccc1-c1ccc(F)c(F)c1 [Example 52, 3-cyano-4-[(3′,4′-difluorobiphenyl-2-yl)oxy]-N-1,2,4-thiadiazol-5-ylbenzenesulfonamide] |
| 720 nM | Cc1ccc(Oc2ccc(S(=O)(=O)Nc3ncns3)cc2C#N)c(-c2ccccc2)n1 [Example 12, 3-cyano-4-[(6-methyl-2-phenylpyridin-3-yl)oxy]-N-1,2,4-thiadiazol-5-ylbenzenesulfonamide] |
| 1810 nM | Cc1nc(-c2ccccc2Oc2ccc(S(=O)(=O)Nc3nccs3)cc2C#N)cs1 [Example 166, 3-cyano-4-(2-(2-methylthiazol-4-yl)phenoxy)-N-(thiazol-2-yl)benzenesulfonamide] |
| 2350 nM | N#Cc1cc(S(=O)(=O)Nc2ncns2)ccc1Oc1ccccc1Oc1ccncc1 [Example 63, 3-cyano-4-[2-(pyridin-4-yloxy)phenoxy]-N-1,2,4-thiadiazol-5-ylbenzenesulfonamide] |
| 2030 nM | N#Cc1cc(S(=O)(=O)Nc2ncns2)ccc1Oc1cnc(N)nc1-c1ccccc1 [Example 23, 4-[(2-amino-4-phenylpyrimidin-5-yl)oxy]-3-cyano-N-1,2,4-thiadiazol-5-ylbenzenesulfonamide] |
| 360 nM | N#Cc1cc(S(=O)(=O)Nc2ncns2)ccc1Oc1ccccc1Oc1ccc(F)cc1 [Example 77, 3-cyano-4-[2-(4-fluorophenoxy)phenoxy]-N-1,2,4-thiadiazol-5-ylbenzenesulfonamide] |

Same assay, conditions: estimated IC50; hSCN9A HEK cells, PatchXpress platform; Examples 283-814

| IC50 | Structure (SMILES) |
| --- | --- |
| 190 nM | N#Cc1cc(S(=O)(=O)Nc2ncns2)cc(F)c1Oc1ccc(Cl)cc1-c1cn[nH]c1 [Example 676, 4-[4-chloro-2-(1H-pyrazol-4-yl)phenoxy]-3-cyano-5-fluoro-N-1,2,4-thiadiazol-5-ylbenzenesulfonamide] |
| 540 nM | Nc1ccc(-c2cc(Cl)ccc2Oc2cc(F)c(S(=O)(=O)Nc3ncns3)cc2F)nc1 [Example 411, 4-[2-(5-aminopyridin-2-yl)-4-chlorophenoxy]-2,5-difluoro-N-1,2,4-thiadiazol-5-ylbenzenesulfonamide] |
| 160 nM | Cn1nccc1-c1cc(F)c(F)cc1Oc1ccc(S(=O)(=O)Nc2nccs2)cc1C#N [Example 526, 3-cyano-4-[4,5-difluoro-2-(1-methyl-1H-pyrazol-5-yl)phenoxy]-N-1,3-thiazol-2-ylbenzenesulfonamide] |
| 1200 nM | Cc1nc(NS(=O)(=O)c2ccc(Oc3ccccc3-c3ccccc3)c(C#N)c2)sc1F [Example 712, 4-(biphenyl-2-yloxy)-3-cyano-N-(5-fluoro-4-methyl-1,3-thiazol-2-yl)benzenesulfonamide] |

Same assay, conditions: estimated IC50; hSCN9A HEK cells, PatchXpress platform; Examples 815-1040

| IC50 | Structure (SMILES) |
| --- | --- |
| 110 nM | N#Cc1cc(S(=O)(=O)Nc2ncns2)ccc1Oc1ccc(Cl)cc1-c1ccon1 [Example 880, 4-(4-chloro-2-isoxazol-3-ylphenoxy)-3-cyano-N-1,2,4-thiadiazol-5-ylbenzenesulfonamide] |
| 3.6 nM | O=S(=O)(Nc1ncns1)c1ccc(Oc2ccc(C(F)(F)F)cc2-c2ccnnc2)c(Cl)c1 [Example 928, 3-chloro-4-[2-pyridazin-4-yl-4-(trifluoromethyl)phenoxy]-N-1,2,4-thiadiazol-5-ylbenzenesulfonamide] |
